Results: ChEMBL document CHEMBL1201862, “PubChem BioAssay data set” (2004)
Activity calls are given as the source filed them.

Legend:
[1] = growth suppression of PTEN-null colon cells, dose response, cell-based, HCT116 PTEN knockout (AID 1047); assay type: functional;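 further: HCT116 colon tumor cells with PTEN knocked out; cells exposed to compound for 60 hours before readout; potency for loss of cell viability measured by luminescence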
X-box-binding protein 1 = X-box-binding protein 1 (Homo sapiens, UniProt P17861); assay type: functional, Cricetulus griseus;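 further: confirmatory dose-response counter-screen serving a CHOP assay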
[2] = Luminescence Cell-Based Dose Retest to Confirm Inhibitors of Cancer Stem Cells. [Related pubchem assays (depositor defined):AID2717, AID2721]; assay type: functional; conditions: Homo sapiens
[3] = growth suppression of beta-catenin-knockout colon cells, dose response, cell-based, HCT116, human colon tumor (AID 1045); assay type: functional;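 further: HCT116 colon tumor cells with beta catenin knocked out; cells exposed to compound for 60 hours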
Coagulation factor XII = biological target: T1, Coagulation factor XII (Homo sapiens, UniProt P00748); assay: FXIIa inhibitor potency, concentration-response, biochemical (AID 716); assay type: functional
T1 sequence (P00748 whole entry): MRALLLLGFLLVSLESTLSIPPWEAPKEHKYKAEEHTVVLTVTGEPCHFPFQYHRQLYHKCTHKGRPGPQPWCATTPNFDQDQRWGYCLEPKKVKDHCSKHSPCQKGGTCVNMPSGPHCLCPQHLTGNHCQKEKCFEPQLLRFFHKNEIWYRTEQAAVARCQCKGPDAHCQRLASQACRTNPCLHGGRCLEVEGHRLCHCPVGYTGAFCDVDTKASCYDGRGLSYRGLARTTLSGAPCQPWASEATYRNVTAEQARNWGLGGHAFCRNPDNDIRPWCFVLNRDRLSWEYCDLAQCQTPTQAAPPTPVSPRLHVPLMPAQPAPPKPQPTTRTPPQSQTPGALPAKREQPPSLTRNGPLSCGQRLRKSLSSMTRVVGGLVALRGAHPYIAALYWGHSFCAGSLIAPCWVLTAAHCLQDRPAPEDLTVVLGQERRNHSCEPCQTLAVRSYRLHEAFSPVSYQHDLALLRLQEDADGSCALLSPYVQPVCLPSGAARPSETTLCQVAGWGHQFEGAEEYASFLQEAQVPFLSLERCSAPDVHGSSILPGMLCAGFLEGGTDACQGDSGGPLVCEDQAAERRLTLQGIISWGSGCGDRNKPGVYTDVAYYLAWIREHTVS

[4] = biological target: Nucleotide-binding oligomerization domain-containing protein 2 (Homo sapiens, UniProt Q9HC29); assay: PubChem AID 2334; assay type: functional
Tumor necrosis factor = Tumor necrosis factor (Homo sapiens, UniProt P01375); assay: TNFa-triggered NF-kB activation inhibitors, SAR follow-up, cell-based, revised (AID 2337); assay type: functional
HEK293 = assay: cells; conditions: Homo sapiens;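 further: cells exposed to compound for 14 hours overnight before viability readout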
[5] = biological target: T2, Nucleotide-binding oligomerization domain-containing protein 1 (Homo sapiens, UniProt Q9Y239); assay: NOD1 signaling inhibitors, SAR follow-up, revised (AID 2333); assay type: functional
T2 sequence (Q9Y239 whole entry): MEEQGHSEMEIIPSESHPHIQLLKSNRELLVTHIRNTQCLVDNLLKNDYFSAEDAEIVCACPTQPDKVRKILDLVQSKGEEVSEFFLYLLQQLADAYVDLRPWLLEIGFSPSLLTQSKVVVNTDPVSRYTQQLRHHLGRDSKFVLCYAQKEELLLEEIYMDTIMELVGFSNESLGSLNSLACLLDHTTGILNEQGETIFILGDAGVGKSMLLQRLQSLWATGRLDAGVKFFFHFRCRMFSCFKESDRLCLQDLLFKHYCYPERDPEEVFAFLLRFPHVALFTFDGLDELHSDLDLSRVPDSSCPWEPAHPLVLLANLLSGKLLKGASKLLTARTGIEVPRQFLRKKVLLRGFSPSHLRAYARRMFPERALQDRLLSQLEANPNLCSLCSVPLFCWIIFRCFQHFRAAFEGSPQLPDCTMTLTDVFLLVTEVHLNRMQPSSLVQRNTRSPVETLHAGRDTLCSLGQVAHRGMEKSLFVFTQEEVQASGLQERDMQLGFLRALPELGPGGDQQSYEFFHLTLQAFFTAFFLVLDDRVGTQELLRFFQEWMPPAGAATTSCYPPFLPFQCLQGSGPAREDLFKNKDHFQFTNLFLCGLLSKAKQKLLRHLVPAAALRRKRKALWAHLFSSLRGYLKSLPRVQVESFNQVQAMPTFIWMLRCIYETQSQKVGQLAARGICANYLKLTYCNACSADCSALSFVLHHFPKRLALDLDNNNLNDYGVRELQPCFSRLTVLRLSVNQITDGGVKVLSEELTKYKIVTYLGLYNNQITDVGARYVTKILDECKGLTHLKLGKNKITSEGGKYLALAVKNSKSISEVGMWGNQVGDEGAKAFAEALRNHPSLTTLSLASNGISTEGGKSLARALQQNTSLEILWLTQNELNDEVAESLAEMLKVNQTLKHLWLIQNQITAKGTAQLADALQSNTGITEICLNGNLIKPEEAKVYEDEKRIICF

[6] = biological target: T3, Mannose-6-phosphate isomerase (Homo sapiens, UniProt P34949); assay: PMI enzyme inhibitors, confirmation, biochemical, fluorescence intensity (AID 1535)
T3 sequence (P34949 whole entry): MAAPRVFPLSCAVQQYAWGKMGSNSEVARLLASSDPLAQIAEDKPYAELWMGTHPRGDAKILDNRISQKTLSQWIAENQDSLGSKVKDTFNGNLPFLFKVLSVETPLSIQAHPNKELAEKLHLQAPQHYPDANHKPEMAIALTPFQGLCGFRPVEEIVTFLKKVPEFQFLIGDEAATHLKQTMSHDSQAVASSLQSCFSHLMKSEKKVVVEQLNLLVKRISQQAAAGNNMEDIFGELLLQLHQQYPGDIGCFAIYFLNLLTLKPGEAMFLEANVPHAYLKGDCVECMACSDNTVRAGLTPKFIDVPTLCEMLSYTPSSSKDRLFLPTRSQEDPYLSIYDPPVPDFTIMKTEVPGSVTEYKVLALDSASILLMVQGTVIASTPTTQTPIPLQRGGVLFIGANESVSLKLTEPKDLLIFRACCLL

[7] = biological target: Phosphoethanolamine/phosphocholine phosphatase (Homo sapiens, UniProt Q8TCT1); assay: SAR assay for compounds that inhibit PHOSPHO1. [Related pubchem assays (depositor defined):AID1545, AID1565, AID1574]
Phosphomannomutase 2 = biological target: T4, Phosphomannomutase 2 (Homo sapiens, UniProt O15305); assay: Counter screen SAR assay for PMM2 inhibitors via a fluorescence intensity assay. [Related pubchem assays (depositor defined):AID1545, AID1574]
T4 sequence (O15305 whole entry): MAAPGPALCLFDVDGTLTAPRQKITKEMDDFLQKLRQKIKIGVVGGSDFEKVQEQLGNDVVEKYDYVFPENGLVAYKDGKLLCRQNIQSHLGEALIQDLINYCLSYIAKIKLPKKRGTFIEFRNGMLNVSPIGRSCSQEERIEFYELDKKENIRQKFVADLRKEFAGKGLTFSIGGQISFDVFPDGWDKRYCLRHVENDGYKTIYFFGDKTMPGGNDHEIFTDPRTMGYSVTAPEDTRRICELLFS

[8] = HEp-2 cell cytotoxicity, dose response, cytotoxicity control for RSV inhibitor project, HTS (AID 2410); assay type: functional; conditions: human respiratory syncytial virus
[9] = biological target: Alkaline phosphatase, placental type (Homo sapiens, UniProt P05187); assay: PLAP enzyme inhibitors, confirmation, biochemical, luminescence (AID 1512); assay type: functional
[10] = biological target: T5, Alkaline phosphatase, tissue-nonspecific isozyme (Homo sapiens, UniProt P05186); assay: human TNAP enzyme inhibitors, SAR follow-up, biochemical, luminescent, dose response (AID 1056)
T5 sequence (P05186 whole entry): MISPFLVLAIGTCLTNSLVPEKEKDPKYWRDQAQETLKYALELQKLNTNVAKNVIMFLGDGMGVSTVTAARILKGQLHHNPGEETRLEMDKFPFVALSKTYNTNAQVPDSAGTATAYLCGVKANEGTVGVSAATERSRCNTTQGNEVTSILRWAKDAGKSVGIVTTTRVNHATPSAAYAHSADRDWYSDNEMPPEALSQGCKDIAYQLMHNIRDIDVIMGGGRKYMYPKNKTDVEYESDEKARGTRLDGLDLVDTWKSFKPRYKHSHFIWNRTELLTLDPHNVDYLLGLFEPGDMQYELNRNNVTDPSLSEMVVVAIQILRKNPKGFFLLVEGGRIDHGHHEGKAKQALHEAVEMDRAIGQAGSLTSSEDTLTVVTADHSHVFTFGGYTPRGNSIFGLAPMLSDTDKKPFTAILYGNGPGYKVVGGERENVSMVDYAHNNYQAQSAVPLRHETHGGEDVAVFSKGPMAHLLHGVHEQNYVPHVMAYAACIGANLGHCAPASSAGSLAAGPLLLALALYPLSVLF

[11] = biological target: Intestinal-type alkaline phosphatase (Homo sapiens, UniProt P09923); assay: human intestinal alkaline phosphatase activators, dose response, biochemical, luminescence, uHTS hits (AID 463120); assay type: functional
CAAX prenyl protease 2 = CAAX prenyl protease 2 (Saccharomyces cerevisiae S288c, UniProt Q03530); assay type: biochemical
Sequence of CAAX prenyl protease 2 (Q03530 whole entry): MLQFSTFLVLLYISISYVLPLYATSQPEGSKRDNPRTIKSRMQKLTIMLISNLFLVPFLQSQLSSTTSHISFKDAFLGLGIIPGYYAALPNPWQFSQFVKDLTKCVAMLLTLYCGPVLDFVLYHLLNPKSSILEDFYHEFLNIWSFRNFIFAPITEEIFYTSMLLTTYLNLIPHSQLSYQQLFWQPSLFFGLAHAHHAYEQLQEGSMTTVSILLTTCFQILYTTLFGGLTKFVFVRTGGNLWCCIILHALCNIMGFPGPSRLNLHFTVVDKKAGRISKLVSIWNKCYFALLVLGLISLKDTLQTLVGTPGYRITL

Sequence of Tumor necrosis factor (P01375 whole entry): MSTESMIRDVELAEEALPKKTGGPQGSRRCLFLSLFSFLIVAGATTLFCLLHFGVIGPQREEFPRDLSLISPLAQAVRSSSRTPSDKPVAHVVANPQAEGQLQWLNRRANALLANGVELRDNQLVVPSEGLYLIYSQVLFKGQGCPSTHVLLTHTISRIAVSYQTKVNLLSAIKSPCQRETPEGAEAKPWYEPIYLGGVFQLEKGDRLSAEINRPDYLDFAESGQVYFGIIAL
Sequence of Nucleotide-binding oligomerization domain-containing protein 2 (Q9HC29 whole entry, the tested form may be a part): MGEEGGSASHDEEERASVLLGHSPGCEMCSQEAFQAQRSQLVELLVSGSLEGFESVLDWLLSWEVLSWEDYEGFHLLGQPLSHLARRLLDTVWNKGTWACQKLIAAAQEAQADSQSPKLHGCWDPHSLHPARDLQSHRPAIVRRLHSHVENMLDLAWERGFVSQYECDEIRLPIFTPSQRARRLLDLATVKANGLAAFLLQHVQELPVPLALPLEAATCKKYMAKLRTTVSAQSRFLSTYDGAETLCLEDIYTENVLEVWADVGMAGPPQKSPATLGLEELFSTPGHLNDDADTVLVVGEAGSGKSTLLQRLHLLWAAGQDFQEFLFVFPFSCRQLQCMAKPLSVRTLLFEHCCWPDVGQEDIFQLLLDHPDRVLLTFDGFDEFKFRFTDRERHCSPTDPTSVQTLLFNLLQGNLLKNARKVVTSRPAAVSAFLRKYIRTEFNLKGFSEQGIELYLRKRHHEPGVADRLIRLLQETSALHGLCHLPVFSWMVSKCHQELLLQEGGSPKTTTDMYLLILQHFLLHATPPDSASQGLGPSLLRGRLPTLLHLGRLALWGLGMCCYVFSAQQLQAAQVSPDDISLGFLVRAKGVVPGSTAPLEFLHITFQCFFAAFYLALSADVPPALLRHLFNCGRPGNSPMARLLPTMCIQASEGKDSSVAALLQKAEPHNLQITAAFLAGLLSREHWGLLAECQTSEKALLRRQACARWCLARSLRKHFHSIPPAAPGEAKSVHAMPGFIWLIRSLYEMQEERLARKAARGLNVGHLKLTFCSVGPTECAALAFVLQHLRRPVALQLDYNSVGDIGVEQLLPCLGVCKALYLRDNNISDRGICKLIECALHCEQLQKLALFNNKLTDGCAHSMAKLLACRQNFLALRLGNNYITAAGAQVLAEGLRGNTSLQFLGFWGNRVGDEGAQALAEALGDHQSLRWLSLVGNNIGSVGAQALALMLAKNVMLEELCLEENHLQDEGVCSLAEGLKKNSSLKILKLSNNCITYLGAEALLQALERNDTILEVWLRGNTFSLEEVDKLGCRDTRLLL
Sequence of Phosphoethanolamine/phosphocholine phosphatase (Q8TCT1 whole entry): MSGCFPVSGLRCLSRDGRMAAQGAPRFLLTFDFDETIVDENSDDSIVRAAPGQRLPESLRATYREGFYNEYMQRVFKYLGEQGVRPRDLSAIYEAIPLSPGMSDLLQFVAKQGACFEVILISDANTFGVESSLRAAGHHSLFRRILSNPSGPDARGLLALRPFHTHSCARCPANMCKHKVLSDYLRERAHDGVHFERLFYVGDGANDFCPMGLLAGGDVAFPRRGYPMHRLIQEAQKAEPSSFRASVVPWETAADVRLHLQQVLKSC
Sequence of Alkaline phosphatase, placental type (P05187 whole entry): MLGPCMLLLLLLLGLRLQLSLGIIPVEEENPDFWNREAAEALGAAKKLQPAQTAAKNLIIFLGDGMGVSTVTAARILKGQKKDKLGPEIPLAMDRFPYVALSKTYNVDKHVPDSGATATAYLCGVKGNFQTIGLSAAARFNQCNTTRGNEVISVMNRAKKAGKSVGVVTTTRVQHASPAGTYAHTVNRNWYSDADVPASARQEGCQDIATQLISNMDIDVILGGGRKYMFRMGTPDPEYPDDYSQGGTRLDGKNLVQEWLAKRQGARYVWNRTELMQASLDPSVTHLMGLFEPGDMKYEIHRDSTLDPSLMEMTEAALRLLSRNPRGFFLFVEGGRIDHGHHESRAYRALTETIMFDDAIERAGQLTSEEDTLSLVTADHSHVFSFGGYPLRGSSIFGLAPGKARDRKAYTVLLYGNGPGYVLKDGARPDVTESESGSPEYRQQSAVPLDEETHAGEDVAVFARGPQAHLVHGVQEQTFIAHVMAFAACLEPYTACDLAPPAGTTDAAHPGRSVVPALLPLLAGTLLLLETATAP
Sequence of Intestinal-type alkaline phosphatase (P09923 whole entry): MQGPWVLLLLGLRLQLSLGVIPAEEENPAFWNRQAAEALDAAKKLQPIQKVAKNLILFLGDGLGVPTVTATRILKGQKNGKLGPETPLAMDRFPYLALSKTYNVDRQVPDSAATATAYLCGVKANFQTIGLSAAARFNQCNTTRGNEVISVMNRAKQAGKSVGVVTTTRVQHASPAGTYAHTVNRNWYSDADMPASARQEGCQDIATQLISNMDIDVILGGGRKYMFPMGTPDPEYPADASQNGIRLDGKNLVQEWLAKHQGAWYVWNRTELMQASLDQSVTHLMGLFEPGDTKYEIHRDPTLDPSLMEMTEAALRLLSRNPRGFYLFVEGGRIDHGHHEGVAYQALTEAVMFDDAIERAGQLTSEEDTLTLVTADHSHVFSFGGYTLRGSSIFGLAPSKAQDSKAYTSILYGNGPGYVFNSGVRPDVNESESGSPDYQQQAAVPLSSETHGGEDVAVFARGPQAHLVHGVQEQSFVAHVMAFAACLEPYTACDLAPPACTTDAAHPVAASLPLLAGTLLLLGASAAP
Sequence of X-box-binding protein 1 (P17861 whole entry): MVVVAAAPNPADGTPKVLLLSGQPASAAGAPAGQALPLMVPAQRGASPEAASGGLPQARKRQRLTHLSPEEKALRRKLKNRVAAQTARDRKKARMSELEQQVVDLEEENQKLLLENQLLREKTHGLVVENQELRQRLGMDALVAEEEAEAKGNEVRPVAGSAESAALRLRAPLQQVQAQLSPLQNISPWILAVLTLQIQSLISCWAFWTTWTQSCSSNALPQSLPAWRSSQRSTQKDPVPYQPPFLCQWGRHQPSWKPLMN

**Q.** For `Cc1ccc(NC(S)=NC(NC(=O)Cc2cccc3ccccc23)C(Cl)(Cl)Cl)cc1` (configuration not stated), which EC50 [1] is on record?
**A.** Its EC50 is 13.1 µM (active).

**Q.** What about the “Absolute IC50 (XBP1)” value (X-box-binding protein 1) of the same molecule?
**A.** The value was 10 µM.

**Q.** What about the AC50 [2] of the same molecule?
**A.** The AC50 was 2.18 µM (active).

**Q.** What about the EC50 [3] of the same molecule?
**A.** The EC50 was 18.3 µM (active).

**Q.** With `COc1ccc2cc(CN(CCO)C(=O)c3ccccc3F)c(=O)[nH]c2c1` as the molecule, how does the IC50 (Coagulation factor XII) read?
**A.** The IC50 was > 50 µM (inactive).

**Q.** Which IC50 [4] does the source give for `Cn1nc(-c2ccc(Cl)cc2)cc1C(=O)NC1CCCc2c1cnn2-c1ccccc1F` (configuration not stated) here?
**A.** Its IC50 is 1.72 µM (active).

**Q.** What about the IC50 (Tumor necrosis factor) of the same molecule?
**A.** Its IC50 is 2.72 µM (active).

**Q.** And the IC50 (HEK293)?
**A.** The IC50 was > 20 µM (inactive).

**Q.** And the IC50 [5]?
**A.** The IC50 was 1.92 µM (active).

**Q.** With `O=c1c2c([N+](=O)[O-])cc([N+](=O)[O-])cc2sn1-c1ccccc1F` as the molecule, how does the IC50 [6] read?
**A.** The IC50 was 1.45 µM (active).

**Q.** What about the IC50 [7] of the same molecule?
**A.** The IC50 was 0.0233 µM (active).

**Q.** What about the IC50 (Phosphomannomutase 2) of the same molecule?
**A.** Its IC50 is 4.22 µM (active).

**Q.** With `O=C(CCc1ccccc1)Nc1sc2c(c1C(=O)O)CCCC2` as the molecule, how does the CC50 [8] read?
**A.** Its CC50 is 42.7 µM (active).

**Q.** And the AC50 [2]?
**A.** Its AC50 is 28.3 µM (active).

**Q.** And the IC50 [4]?
**A.** Its IC50 is > 20 µM (inactive).

**Q.** And the IC50 (cells)?
**A.** Its IC50 is 39.6 µM (active).

**Q.** What about the IC50 (Tumor necrosis factor) of the same molecule?
**A.** Its IC50 is > 20 µM (inactive).

**Q.** What about the IC50 (HEK293) of the same molecule?
**A.** The IC50 was > 20 µM (inactive).

**Q.** And the IC50 [5]?
**A.** The IC50 was > 20 µM (inactive).

**Q.** Which IC50 [9] does the source give for `O=C(CN1CCCc2ccccc21)c1ccc(O)c(O)c1` here?
**A.** The IC50 was 4.87 µM (active).

**Q.** What about the IC50 [10] of the same molecule?
**A.** The IC50 was 39.3 µM (active).

**Q.** Which EC50 [11] does the source give for `CCOc1ccc(CC(=O)NNC(=S)NCCc2ccccc2)cc1` here?
**A.** The EC50 was 13.1 µM (active).

**Q.** Which IC50 (Coagulation factor XII) does the source give for `CCCSc1nnc(-c2c[nH]c3ccccc23)n1C` here?
**A.** The IC50 was > 50 µM (inactive).

**Q.** For `CN(C)CCNC(=O)c1cccn(Cc2cc(C(F)(F)F)cc(C(F)(F)F)c2)c1=O`, which AC50 (CAAX prenyl protease 2) is on record?
**A.** The AC50 was > 100 µM (inactive).

**Q.** With `O=c1c2c([N+](=O)[O-])cc([N+](=O)[O-])cc2sn1-c1ccc(F)cc1` as the molecule, how does the IC50 [6] read?
**A.** The IC50 was 0.709 µM (active).

**Q.** And the IC50 [7]?
**A.** Its IC50 is 0.1 µM (active).

**Q.** And the IC50 (Phosphomannomutase 2)?
**A.** The IC50 was 2.46 µM (active).
